Tests used:
Assay in all cases: DPP-IV Inhibition Screening Assay
[1] = biological target: Dipeptidyl peptidase 4 [K6R,T557I] (Homo sapiens, UniProt P27487, K6R/T557I)
Procedure: (§1) DPP-IV inhibition was measured by DPP-IV inhibitor screening assay kit (Cayman Chemical Company, Item No. 700210) following the manufacturer's instructions. Briefly, solutions of test compounds at varying concentrations were prepared in dimethyl sulfoxide (DMSO) and then diluted into assay buffer. Human recombinant DPP-IV was added to the dilutions and preincubated for 30 min at 37 °C before the reaction was initiated by the addition of fluorogenic substrate solution AMC (Gly-Pro-Aminomethylcoumarin). Human recombinant DPP-8 or DPP-9 was added to the dilutions and preincubated for 10 min at 22 °C before the reaction was initiated by the addition of fluorogenic DPP substrate. The kinetics of the reaction wasmonitored (excitation at 380 nm, emission at 460 nm).

Dipeptidyl peptidase 8 = Dipeptidyl peptidase 8 (Homo sapiens, UniProt Q6V1X1)
Procedure: as §1

Dipeptidyl peptidase 9 = Dipeptidyl peptidase 9 (Homo sapiens, UniProt Q86TI2)
Procedure: as §1

Dipeptidyl peptidase 9, sequence (Q86TI2 whole entry): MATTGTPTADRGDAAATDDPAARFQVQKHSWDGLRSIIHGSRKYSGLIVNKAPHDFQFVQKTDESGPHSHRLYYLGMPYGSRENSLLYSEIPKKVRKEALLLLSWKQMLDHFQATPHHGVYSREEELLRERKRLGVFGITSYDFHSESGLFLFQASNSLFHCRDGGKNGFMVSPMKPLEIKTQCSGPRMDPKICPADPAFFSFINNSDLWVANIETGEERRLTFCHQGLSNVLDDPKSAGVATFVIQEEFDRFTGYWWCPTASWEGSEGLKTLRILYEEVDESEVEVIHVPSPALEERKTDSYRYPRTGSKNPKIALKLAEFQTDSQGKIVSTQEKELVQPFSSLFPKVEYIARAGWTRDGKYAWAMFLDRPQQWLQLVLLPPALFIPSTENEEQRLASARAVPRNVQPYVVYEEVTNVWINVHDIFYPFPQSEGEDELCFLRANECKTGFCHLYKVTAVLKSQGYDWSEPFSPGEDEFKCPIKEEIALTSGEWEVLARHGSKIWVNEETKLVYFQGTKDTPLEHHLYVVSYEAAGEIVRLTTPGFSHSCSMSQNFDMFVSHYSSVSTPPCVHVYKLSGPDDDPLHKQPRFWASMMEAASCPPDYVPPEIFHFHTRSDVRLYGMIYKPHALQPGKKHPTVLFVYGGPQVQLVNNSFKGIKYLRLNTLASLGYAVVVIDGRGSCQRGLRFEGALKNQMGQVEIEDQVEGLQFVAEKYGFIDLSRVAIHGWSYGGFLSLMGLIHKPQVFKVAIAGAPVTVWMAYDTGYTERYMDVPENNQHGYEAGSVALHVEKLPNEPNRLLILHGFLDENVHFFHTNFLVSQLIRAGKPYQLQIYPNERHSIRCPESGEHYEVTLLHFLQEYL
Dipeptidyl peptidase 4 [K6R,T557I], sequence (P27487 whole entry K6R/T557I/D663E): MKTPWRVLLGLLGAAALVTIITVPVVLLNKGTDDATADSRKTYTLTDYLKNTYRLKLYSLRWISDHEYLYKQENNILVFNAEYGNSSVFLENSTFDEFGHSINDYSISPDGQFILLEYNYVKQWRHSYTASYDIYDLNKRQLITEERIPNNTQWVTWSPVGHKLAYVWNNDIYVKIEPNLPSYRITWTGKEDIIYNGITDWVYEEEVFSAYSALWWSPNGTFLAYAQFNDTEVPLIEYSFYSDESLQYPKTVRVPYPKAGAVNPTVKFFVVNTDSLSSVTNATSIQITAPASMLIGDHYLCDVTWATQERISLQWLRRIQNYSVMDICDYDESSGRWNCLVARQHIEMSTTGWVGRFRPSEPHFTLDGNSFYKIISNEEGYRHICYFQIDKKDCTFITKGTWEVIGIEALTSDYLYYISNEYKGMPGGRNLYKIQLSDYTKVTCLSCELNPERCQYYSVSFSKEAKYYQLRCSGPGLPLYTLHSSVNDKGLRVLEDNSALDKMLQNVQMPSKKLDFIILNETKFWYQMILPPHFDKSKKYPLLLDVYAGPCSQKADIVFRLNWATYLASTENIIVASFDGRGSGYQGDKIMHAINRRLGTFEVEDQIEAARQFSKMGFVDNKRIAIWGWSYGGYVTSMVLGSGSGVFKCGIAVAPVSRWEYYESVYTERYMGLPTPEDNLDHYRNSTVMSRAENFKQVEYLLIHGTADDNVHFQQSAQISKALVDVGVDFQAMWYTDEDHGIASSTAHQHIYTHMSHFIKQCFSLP
Dipeptidyl peptidase 8, sequence (Q6V1X1 whole entry): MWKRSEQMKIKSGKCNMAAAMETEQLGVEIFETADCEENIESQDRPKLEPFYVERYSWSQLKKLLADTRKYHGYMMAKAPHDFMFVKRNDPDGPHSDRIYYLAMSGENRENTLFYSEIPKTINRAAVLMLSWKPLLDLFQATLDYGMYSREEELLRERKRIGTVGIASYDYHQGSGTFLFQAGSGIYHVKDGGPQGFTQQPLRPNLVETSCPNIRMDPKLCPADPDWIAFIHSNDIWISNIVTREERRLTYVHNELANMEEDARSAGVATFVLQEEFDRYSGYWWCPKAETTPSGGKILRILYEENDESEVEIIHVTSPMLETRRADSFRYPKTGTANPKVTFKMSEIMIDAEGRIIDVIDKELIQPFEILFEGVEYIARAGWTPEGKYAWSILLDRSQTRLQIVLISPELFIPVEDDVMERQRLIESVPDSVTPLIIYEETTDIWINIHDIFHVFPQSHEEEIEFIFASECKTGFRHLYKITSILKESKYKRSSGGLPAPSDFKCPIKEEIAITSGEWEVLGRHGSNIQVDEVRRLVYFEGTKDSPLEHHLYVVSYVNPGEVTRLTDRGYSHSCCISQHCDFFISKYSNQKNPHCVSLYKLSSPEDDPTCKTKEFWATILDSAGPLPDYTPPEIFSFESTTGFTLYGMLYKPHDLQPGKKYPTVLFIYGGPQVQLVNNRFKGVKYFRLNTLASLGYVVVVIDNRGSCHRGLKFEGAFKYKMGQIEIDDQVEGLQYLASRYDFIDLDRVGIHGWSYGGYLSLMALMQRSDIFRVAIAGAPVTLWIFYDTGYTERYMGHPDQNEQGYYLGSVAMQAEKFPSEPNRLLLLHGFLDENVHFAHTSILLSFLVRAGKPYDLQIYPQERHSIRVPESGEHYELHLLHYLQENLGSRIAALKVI

Which results are given for `CC(C)=CCn1c(N2CCC[C@@H](N)C2)nc2c1c(=O)n(Cc1ccccc1C#N)c(=O)n2C` [(R)-40]?
IC50 [1]: 23.5 nM; IC50 (Dipeptidyl peptidase 8): > 100 µM; IC50 (Dipeptidyl peptidase 9): > 100 µM

What does the source list for `CC(C)=CCn1c(N2CCC[C@@H](N)C2)nc2c1c(=O)n(Cc1nc3ccccc3s1)c(=O)n2C` [(R)-43]?
IC50 [1]: 36.2 nM; IC50 (Dipeptidyl peptidase 8): > 100 µM; IC50 (Dipeptidyl peptidase 9): > 100 µM

How did the IC50 [1] turn out when `CC(C)=CCn1c(N2CCC[C@H](N)C2)nc2c1c(=O)n(Cc1ccccc1C#N)c(=O)n2C` [(S)-40] was run?
Its IC50 is 108 nM.

And the IC50 (Dipeptidyl peptidase 8)?
Its IC50 is greater than 100 µM.

And the IC50 (Dipeptidyl peptidase 9)?
The IC50 was greater than 100 µM.

With `CC(C)=CCn1c(N2CCC[C@H](N)C2)nc2c1c(=O)n(Cc1nc3ccccc3s1)c(=O)n2C` [(S)-43] as the molecule, how does the IC50 [1] read?
Its IC50 is 36.9 nM.

What about the IC50 (Dipeptidyl peptidase 8) of the same molecule?
The IC50 was greater than 100 µM.

And the IC50 (Dipeptidyl peptidase 9)?
Its IC50 is greater than 100 µM.

Source: BindingDB's records for doi:10.1111/cbdd.12663 (West China Hospital, 2016)
